Assay results taken from US5075287A, “Muramyl peptide derivatives and immunoregulating compositions containing them” (priority 1989, dated 1991).
Like-named read-outs stand apart in the source and are kept apart here.

Columns and labels:
[1] = tested on: L-1210 mouse leukemia cells; test: Activation of macrophages (growth inhibition of tumor cells by intraperitoneal macrophages of treated mice, MTT assay); format: cell-based; conditions: macrophages taken 3 days after i.p. 0.2 ml of 500 μg/ml, macrophage:L-1210 20:1, 72 hours
Protocol: A compound of the present invention was dissolved in lipidmicrosphere to obtain a solution in a concentration of 500μg/ml, and 0.2 ml of such solution was intraperitoneally administered to each mouse in one group consisting of seven female CDF1 mice. Intraperitoneal macrophages obtained three days after the administration and L-1210 mouse leukemia cells were mixed in the ratio of cell numbers of 20:1, respectively. Two hundred μl of the mixture was placed in each well of one sheet of 96 well microtiter plate. After 72 hours, the increase of the cell number in each well was determined by a MTT assay method. The ratio of the cell number for the mixture of the L-1210 cells and the macrophage relative to the cell number for the L-1210 cells only(growth inhibitory ratio) was determined, and the results are shown in Table 3.

[2] = tested on: influenza HA vaccine (B/Nagasaki/1/87 strain); format: in vivo, female CDF1 mice; conditions: Experiment 1, 5000-fold dilution
[3] = tested on: hepatitis B virus surface antigen (HBs); test: Hepatitis-vaccine enhancing activity (adjuvant activity): anti-HBs IgG in mouse serum by ELISA; format: in vivo, female CDF1 mice; conditions: Experiment 1, 5000-fold dilution
Protocol: A compound of the present invention was dissolved in lipidmicrosphere (1 mg/ml). On the other hand, a solution of hepatitis B virus surface antigen (HBs) in physiological saline was prepared (50 μg/ml). The above solutions in equal amounts were mixed to prepare a test solution. A control solution was prepared by the exclusion of the compound of the present invention from said test solution. A mixture of a suspension of aluminium hydroxide gel in physiological saline (1 mg/ml) and said hepatitis vaccine preparation in equal amounts was prepared as another control solution. The test solution (0.2 ml) was intraperitoneally administered to each mouse in one group consisting of seven female CDF1 mice.
Blood samples were collected from the fundus ocluli vein of each mouse every week after the administration and then centrifuged to obtain serums. Three weeks after the administration, 0.2 ml of the test liquid was intraperitoneally administered again to each mouse for secondary stimulation. Then blood collecting was conducted every week to obtain serums after the application of the secondary stimulation, in the same manner as that described above.
The amount of the IgG antibodies against the hepatitis B virus surface antigens (HBs) in the serums thus obtained was determined with an ELISA method.

[4] = 1 W after i.p. administration, compound in lipidmicrosphere + HA vaccine
[5] = 4 W (after secondary stimulation at 3 weeks)
[6] = 5 W (after secondary stimulation at 3 weeks)
[7] = 1 W after i.p. administration, compound in lipidmicrosphere + HBs

Row | Structure (SMILES) | Growth inhibitory ratio of L-1210 mouse leukemia cells [1] [%] | Anti HA serum antigen value (average value ± S.D.) [2, 4] [O.D 415 nm] | Anti HA serum antigen value (average value ± S.D.) ([2]; 2 W) [O.D 415 nm] | Anti HA serum antigen value (average value ± S.D.) ([2]; 3 W) [O.D 415 nm] | Anti HA serum antigen value (average value ± S.D.) [2, 5] [O.D 415 nm] | Anti HA serum antigen value (average value ± S.D.) [2, 6] [O.D 415 nm] | Anti-HBs IgG antibody level in serum (ELISA absorbance at 415 nm) [3, 7] [O.D 415 nm] | Anti-HBs IgG antibody level in serum (ELISA absorbance at 415 nm) ([3]; 2 W) [O.D 415 nm] | Anti-HBs IgG antibody level in serum (ELISA absorbance at 415 nm) ([3]; 3 W) [O.D 415 nm] | Anti-HBs IgG antibody level in serum (ELISA absorbance at 415 nm) [3, 5] [O.D 415 nm] | Anti-HBs IgG antibody level in serum (ELISA absorbance at 415 nm) [3, 6] [O.D 415 nm]
1 | CCCCCCCCCCCCCC(=O)O[C@H](CCCCCCCCCCC)CC(=O)S[C@@H]1O[C@H](CO)[C@@H](O)[C@H](O[C@H](C)C(=O)N[C@@H](C)C(=O)N[C@H](CCC(=O)OC)C(N)=O)[C@H]1NC(C)=O [Example 4, N-[2-0-{2-Acetamido-2,3-dideoxy-1-S-[[3R)-3-tetradecanoyloxytetradecanoyl)-1-thio-β-D-glucopyranos-3-yl}-D-lactoyl]-L-alanyl-D-isoglutamine methylester] | 45.2 | 0.004 ± 0.001 | 0.215 ± 0.001 | 0.381 ± 0.004 | 1.204 ± 0.012 | 1.150 ± 0.016 | 0 | 0.073 ± 0.001 | 0.111 ± 0.007 | 0.848 ± 0.009 | 0.935 ± 0.022
2 | CCCCCCCCCCCCCCC(CCCCCCCCCCCCCC)C(=O)O[C@H]1O[C@H](COC(=O)CCCCCCCCC)[C@@H](O)[C@H](O[C@H](C)C(=O)N[C@@H](C)C(=O)N[C@H](CCC(=O)OC)C(N)=O)[C@H]1NC(C)=O [Example 5] | 57.8 | 0 | 0.091 ± 0.002 | 0.377 ± 0.001 | 1.037 ± 0.027 | 1.068 ± 0.004 | 0.001 ± 0.001 | 0.021 ± 0.001 | 0.048 ± 0.001 | 0.643 ± 0.013 | 0.490 ± 0.009
3 | CCCCCCCCCCCCCCC(CCCCCCCCCCCCCC)C(=O)O[C@H]1O[C@H](COC(=O)CCCCCCCCCCCCC)[C@@H](O)[C@H](O[C@H](C)C(=O)N[C@@H](C)C(=O)N[C@H](CCC(=O)OC)C(N)=O)[C@H]1NC(C)=O [Example 6, N-[2-0-{2-Acetamido-2,3-dideoxy-6-0-tetradecanoyl-1-0-(2-tetradecylhexadecanoyl)-α-D-glucopyranos-3-yl}-D-lactoyl]-L-alanyl-D-isoglutamine methylester] | 63.0 | 0.001 ± 0.001 | 0.013 ± 0.002 | 0.259 ± 0.004 | 1.025 ± 0.013 | 1.159 ± 0.013 | 0 | 0.020 ± 0.002 | 0.069 ± 0.001 | 0.477 ± 0.005 | 0.529 ± 0.005
4 | CCCCCCCCCCCCCCCCCC(=O)OC[C@H]1O[C@H](OC(=O)C(CCCCCCCCCCCCCC)CCCCCCCCCCCCCC)[C@H](NC(C)=O)[C@@H](O[C@H](C)C(=O)N[C@@H](C)C(=O)N[C@H](CCC(=O)OC)C(N)=O)[C@@H]1O [Example 7, N-[2-0-{2-Acetamido-2,3-dideoxy-6-0-octadecanoyl-1-0-(2-tetradecylhexadecanoyl)-α-D-glucopyranos-3-yl}-D-lactoyl]-L-alanyl-D-isoglutamine methylester] | 90.2 | 0.001 ± 0.001 | 0.112 ± 0.003 | 0.286 ± 0.001 | 1.039 ± 0.010 | 1.128 ± 0.026 | 0 | 0.016 ± 0.003 | 0.071 ± 0.004 | 0.426 ± 0.000 | 0.470 ± 0.010
5 | CCCCCCCCCCCCCCC(CCCCCCCCCCCCCC)C(=O)S[C@@H]1O[C@H](COC(=O)CCCCCCCCC)[C@@H](O)[C@H](O[C@H](C)C(=O)N[C@@H](C)C(=O)N[C@H](CCC(=O)OC)C(N)=O)[C@H]1NC(C)=O [Example 8, N-[2-0-{2-Acetamido-2,3-dideoxy-6-0-decanoyl-1-S-(2-tetradecylhexadecanoyl)-1-thio-β-D-glucopyranos-3--yl}-D-lactoyl]-L-alanyl-D-isoglutamine methylester] | 57.9 | 0.001 ± 0.001 | 0.105 ± 0.005 | 0.246 ± 0.004 | 1.246 ± 0.019 | 1.267 ± 0.023 | 0 | 0.067 ± 0.003 | 0.114 ± 0.002 | 0.897 ± 0.012 | 0.845 ± 0.016
6 | CCCCCCCCCCCCCCC(CCCCCCCCCCCCCC)C(=O)S[C@@H]1O[C@H](COC(=O)CCCCCCCCCCCCC)[C@@H](O)[C@H](O[C@H](C)C(=O)N[C@@H](C)C(=O)N[C@H](CCC(=O)OC)C(N)=O)[C@H]1NC(C)=O [Example 9, N-[2-0-{2-Acetamido-2,3-dideoxy-6-0-tetradecanoyl-1-S-(2-tetradcylhexadecanoyl)-1-thio-β-D-glucopyranos-3-yl}-D-lactoyl]-L-alanyl-D-isoglutamine methylester] | 58.5 | 0.019 ± 0.002 | 0.168 ± 0.005 | 0.392 ± 0.006 | 1.342 ± 0.005 | 1.329 ± 0.026 | 0.014 ± 0.002 | 0.092 ± 0.003 | 0.149 ± 0.001 | 0.681 ± 0.012 | 0.702 ± 0.006
7 | CCCCCCCCCCCCCCCCCC(=O)OC[C@H]1O[C@@H](SC(=O)C(CCCCCCCCCCCCCC)CCCCCCCCCCCCCC)[C@H](NC(C)=O)[C@@H](O[C@H](C)C(=O)N[C@@H](C)C(=O)N[C@H](CCC(=O)OC)C(N)=O)[C@@H]1O [Example 10, N-[2-0-{2-Acetamido-2,3-dideoxy-6-0-octadecanoyl-1-S-(2-tetradecylhexadecanoyl)-1-thio-β-D-glucopyranos-3-yl}-D-lactoyl]-L-alanyl-D-isoglutamine methylester] | 76.6 | 0.005 ± 0.001 | 0.153 ± 0.003 | 0.280 ± 0.000 | 1.149 ± 0.018 | 1.203 ± 0.014 | 0 | 0.061 ± 0.002 | 0.114 ± 0.003 | 0.778 ± 0.024 | 0.878 ± 0.009
